Reference: US9452196B2, “Pharmaceutical composition for treating medical conditions and a method for treating alimentary disorders and related diseases” (SOCIEDADE BENEFICENTE DE SENHORAS HOSPITAL SIRIO LIBANES, priority 2009, dated 2016)
Like-named read-outs stand apart in the source and are kept apart here.

Experiments:
male Wistar rats = assay: fat content and body weight in male Wistar rats on 63-day diet; type: in vivo, rat; conditions: once a day for three days; for Body Weight (% of Control) / Periepididymal Adipose Tissue Weight / Retroperitoneal Adipose Tissue Weight / Visceral Adipose Tissue Weight: 63-day ad libitum diet
[1] = cited from earlier work
CB1 receptor [2] = target: T1, CB1 receptor (Homo sapiens, UniProt P21554); assay: displacement of the ligand rimonabant from CB1 receptors; type: binding; conditions: FIG. 2A
T1 sequence (P21554 whole entry): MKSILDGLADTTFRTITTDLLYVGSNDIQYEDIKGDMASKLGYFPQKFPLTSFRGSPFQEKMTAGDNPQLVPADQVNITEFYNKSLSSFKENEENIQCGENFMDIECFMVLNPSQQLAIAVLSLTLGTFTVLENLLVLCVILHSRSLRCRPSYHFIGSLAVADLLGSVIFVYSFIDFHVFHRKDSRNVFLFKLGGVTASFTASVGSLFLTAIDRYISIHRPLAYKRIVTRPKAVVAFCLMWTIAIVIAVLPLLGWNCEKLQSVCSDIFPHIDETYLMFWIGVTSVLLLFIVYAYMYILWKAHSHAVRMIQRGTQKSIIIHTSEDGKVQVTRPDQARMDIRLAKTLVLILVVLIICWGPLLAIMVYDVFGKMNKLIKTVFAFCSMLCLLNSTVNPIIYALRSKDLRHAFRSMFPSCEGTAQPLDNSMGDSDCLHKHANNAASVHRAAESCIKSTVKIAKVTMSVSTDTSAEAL

CB1 receptor [3] = target: T1, CB1 receptor; conditions: in vitro, Dodd et al.; cited from earlier work
CB1 receptor [4] = target: T1, CB1 receptor; type: biochemical; conditions: for percentage of activity as compared to the control group: CB1
Source text: Next the selectivity of hemopressin for CB1 receptors was examined using antibodies sensitive to the conformations of mu and delta opiod receptors, alpha-2A and beta-2 adrenergic receptors, as well as type 1 and 2 Angiotensin II receptors.

rats and mice = conditions: Dodd et al., cited from earlier work
CB1 receptor [5] = target: T1, CB1 receptor; conditions: literature; cited from earlier work
rats [6] = assay: standard swimming test for depression; type: in vivo, rat; conditions: hemopressin 1 mg/Kg, FIG. 5
CB1 receptor [7] = target: T1, CB1 receptor; type: biochemical
Protocol: A test was then designed, the results of which are illustrated in FIG. 2B, to determine if hemopressin could block the signaling of CB1 receptor. […] Finally, a test was designed to measure whether hemopressin is capable of blocking the increase of levels of phosphorylated ERK1 and ERK2.
Hemopressin was also determined to not only act as an antagonist but as an inverse agonist of CB1 receptors. This was further explored by studying the binding of GTPgammaS, adenylate cyclase activity and MAP kinase phopshorylation. […] This can clearly be seen in FIGS. 3A-C.

diet induced obese rats = assay: insulin sensitivity in diet induced obese rats; type: in vivo, rat; conditions: 50 micrograms/Kg and 1 mg/Kg hemopressin, FIG. 6
rats [8] = assay: body weight and fat content after oral administration; type: in vivo, rat; conditions: for Body Weight (% of Control) / Periepididymal Adipose Tissue Weight / Retroperitoneal Adipose Tissue Weight / Visceral Adipose Tissue Weight: rats
2A neural cells = assay: growth of neurites in 2A neural cells; type: cell-based; conditions: FIG. 3D
[9] = target: T2, type 2 Angiotensin II receptor (AT2) (Homo sapiens, UniProt P50052); assay: recognition by conformation-sensitive receptor antibody; type: biochemical
T2 sequence (P50052 1-363): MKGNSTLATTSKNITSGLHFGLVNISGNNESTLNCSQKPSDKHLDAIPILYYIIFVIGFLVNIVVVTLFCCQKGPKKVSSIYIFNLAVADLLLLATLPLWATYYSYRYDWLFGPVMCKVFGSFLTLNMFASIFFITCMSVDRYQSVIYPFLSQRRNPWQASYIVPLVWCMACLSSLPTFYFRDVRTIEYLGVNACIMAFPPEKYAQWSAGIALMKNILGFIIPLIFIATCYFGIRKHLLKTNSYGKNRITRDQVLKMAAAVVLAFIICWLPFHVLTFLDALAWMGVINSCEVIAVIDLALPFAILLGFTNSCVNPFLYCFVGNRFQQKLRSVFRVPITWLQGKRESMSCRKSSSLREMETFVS
Source text: (§1) Next the selectivity of hemopressin for CB1 receptors was examined using antibodies sensitive to the conformations of mu and delta opiod receptors, alpha-2A and beta-2 adrenergic receptors, as well as type 1 and 2 Angiotensin II receptors. In the following table, it is possible to identify the specificity of the peptide hemopressin for the CB1 receptor. […] The following data presents the percentage of activity as compared to the control group: […]

[10] = target: beta-2 adrenergic receptor (Homo sapiens, UniProt P07550); assay: as above; type: biochemical
Sequence of beta-2 adrenergic receptor (P07550 whole entry): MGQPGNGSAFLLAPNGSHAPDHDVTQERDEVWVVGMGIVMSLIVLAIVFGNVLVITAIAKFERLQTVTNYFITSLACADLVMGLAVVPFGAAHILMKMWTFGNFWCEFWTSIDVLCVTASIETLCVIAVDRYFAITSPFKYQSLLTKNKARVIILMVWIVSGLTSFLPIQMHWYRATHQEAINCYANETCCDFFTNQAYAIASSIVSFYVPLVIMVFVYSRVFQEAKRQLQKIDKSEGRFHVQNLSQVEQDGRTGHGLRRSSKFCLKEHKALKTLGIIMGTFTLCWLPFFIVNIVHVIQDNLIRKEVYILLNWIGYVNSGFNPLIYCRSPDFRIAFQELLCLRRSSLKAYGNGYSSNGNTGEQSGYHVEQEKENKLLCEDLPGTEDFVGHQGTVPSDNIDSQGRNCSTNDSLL
Source text: as §1

mu opioid receptor = mu opioid receptor (Homo sapiens, UniProt P35372); assay: as above; type: biochemical
Sequence of mu opioid receptor (P35372 whole entry): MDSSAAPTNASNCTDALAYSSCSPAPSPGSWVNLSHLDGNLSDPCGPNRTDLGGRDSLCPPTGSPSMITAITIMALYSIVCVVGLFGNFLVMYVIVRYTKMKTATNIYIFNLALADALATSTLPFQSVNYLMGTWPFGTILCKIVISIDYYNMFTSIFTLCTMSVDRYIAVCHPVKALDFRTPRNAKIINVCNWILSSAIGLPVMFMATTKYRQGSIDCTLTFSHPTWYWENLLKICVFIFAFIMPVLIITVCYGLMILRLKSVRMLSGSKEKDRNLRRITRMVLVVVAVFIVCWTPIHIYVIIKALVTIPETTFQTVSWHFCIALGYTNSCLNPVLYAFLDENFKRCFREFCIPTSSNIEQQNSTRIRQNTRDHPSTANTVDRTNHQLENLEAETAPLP
Source text: as §1

delta opioid receptor = delta opioid receptor (Homo sapiens, UniProt P41143); assay: as above; type: biochemical
Sequence of delta opioid receptor (P41143 whole entry): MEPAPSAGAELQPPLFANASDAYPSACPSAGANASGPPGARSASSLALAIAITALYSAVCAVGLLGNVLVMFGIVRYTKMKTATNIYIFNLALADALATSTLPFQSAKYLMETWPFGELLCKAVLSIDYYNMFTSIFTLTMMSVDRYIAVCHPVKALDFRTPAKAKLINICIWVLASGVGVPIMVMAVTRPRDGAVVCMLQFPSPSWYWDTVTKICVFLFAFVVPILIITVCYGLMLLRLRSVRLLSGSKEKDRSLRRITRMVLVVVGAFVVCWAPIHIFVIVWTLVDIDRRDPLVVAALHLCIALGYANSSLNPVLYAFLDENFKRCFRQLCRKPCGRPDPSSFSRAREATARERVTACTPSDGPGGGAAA
Source text: as §1

[11] = target: T3, alpha-2A adrenergic receptor (Homo sapiens, UniProt P08913); assay: as above; type: biochemical
T3 sequence (P08913 1-465): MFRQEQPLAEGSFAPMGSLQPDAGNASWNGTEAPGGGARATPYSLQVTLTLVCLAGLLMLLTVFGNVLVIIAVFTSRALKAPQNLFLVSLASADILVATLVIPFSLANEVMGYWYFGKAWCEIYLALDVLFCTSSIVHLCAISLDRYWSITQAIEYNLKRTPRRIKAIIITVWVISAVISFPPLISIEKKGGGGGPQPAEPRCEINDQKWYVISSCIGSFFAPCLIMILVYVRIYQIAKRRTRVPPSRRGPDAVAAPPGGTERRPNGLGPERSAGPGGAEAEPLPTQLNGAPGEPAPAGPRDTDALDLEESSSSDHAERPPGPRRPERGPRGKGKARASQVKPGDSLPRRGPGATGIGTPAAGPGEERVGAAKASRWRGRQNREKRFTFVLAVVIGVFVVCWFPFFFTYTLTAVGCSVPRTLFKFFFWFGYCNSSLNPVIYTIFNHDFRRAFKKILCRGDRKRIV
Source text: as §1

[12] = target: T4, type 1 Angiotensin II receptor (AT1) (Homo sapiens, UniProt P30556); assay: as above; type: biochemical
T4 sequence (P30556 1-359): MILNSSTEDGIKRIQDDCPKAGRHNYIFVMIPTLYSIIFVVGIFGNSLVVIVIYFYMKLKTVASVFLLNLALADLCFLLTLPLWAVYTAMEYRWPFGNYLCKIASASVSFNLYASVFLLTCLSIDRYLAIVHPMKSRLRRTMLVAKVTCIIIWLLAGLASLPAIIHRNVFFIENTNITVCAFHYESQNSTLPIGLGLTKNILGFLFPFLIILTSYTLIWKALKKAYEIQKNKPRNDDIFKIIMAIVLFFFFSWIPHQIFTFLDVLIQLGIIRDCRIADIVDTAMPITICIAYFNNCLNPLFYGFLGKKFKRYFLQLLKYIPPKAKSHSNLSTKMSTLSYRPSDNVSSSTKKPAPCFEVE
Source text: as §1

male Zucker rats = assay: fat content in male Zucker rats after intraperitoneal administration; type: in vivo, rat; conditions: intraperitoneal 50 micrograms/Kg once a day for three days
Protocol: Experiments were also conducted on genetically obese and diet-induced rats of another species. Male Zucker rats were maintained on a 12 hour light/dark cycle. The rats were divided into two groups that receive once a day for three days either intraperiotoneal administration of 50 micrograms/Kg body weight of HPW2 or saline.

Compound: CC(C)C[C@H](NC(=O)[C@H](Cc1ccccc1)NC(=O)[C@H](CCCCN)NC(=O)[C@H](Cc1ccccc1)NC(=O)[C@H](CC(N)=O)NC(=O)[C@@H](NC(=O)C1CCCN1)C(C)C)C(=O)N[C@@H](CO)C(=O)N[C@@H](Cc1cnc[nH]1)C(=O)O (stereo partly drawn) [hemopressin]
- Body Weight (% of Control) (male Wistar rats): 98.62 ± 13.33 % of Control
- Periepididymal Adipose Tissue Weight (male Wistar rats): 4.77 ± 1.06 g
- Retroperitoneal Adipose Tissue Weight (male Wistar rats): 6.12 ± 2.09 g
- Visceral Adipose Tissue Weight (male Wistar rats): 2.77 ± 0.58 g
- periepididymal and visceral fat content compared to saline control (male Wistar rats): significantly reduced periepididymal and visceral fat content
- antinociceptive effects ([1]; Dale et al., literature): nonopioid antinociceptive effects
- treatment of hyperalgesia ([1]; administered locally or systemically, Heimann et al.): effective in treating hyperalgesia
- displacement of rimonabant from CB1 receptors (CB1 receptor [2]): capable of displacing rimonabant from CB1 receptors
- CB1 agonist-induced internalization of the CB1 receptor (CB1 receptor [3]): antagonize CB1 agonist-induced internalization of the CB1 receptor in vitro
- block of the HU-210 induced increase in the recognition of the antibody (CB1 receptor [4]): significantly blocked
- percentage of activity as compared to the control group (CB1 receptor [4]; agonist and HP together): 102.06 ± 5.91%
- percentage of activity as compared to the control group (CB1 receptor [4]; hemopressin alone): 72.30 ± 3.32%
- recognition of a CB1 specific antibody (CB1 receptor [4]; substance alone, FIG. 1A/1B): decrease the recognition of a CB1 specific antibody
- selectivity for CB1 receptors (CB1 receptor [4]; versus mu and delta opioid, alpha-2A, beta-2, AT1, AT2 receptors): highly selective for CB1 receptors
- food intake (rats and mice; administered centrally): induce hypophagia in vivo when administered centrally
- food intake (rats and mice; administered systemically): induce hypophagia in vivo when administered systemically
- action at the CB1 receptor (CB1 receptor [5]): CB1 receptor inverse agonist
- symptoms of depression in standard swimming test (rats [6]): showed no such symptoms
- block of the increase of GTPgammaS (CB1 receptor [7]): capable of blocking the increase of GTPgammaS
- block of the increase of levels of phosphorylated ERK1 and ERK2 (CB1 receptor [7]): behave similarly to rimonabant
- block of decreases in cAMP levels (CB1 receptor [7]; against agonists, FIG. 2C): block decreases in cAMP levels with efficiency similar to that of rimonabant
- basal signaling, binding of GTPgammaS (CB1 receptor [7]; without agonist, FIG. 3A): causes decreases in signaling below the basal levels
- basal signaling, adenylate cyclase activity (CB1 receptor [7]; without agonist, FIG. 3B): causes decreases in signaling below the basal levels
- basal signaling, MAP kinase phosphorylation (CB1 receptor [7]; without agonist, FIG. 3C): causes decreases in signaling below the basal levels
- insulin sensitivity (diet induced obese rats): significantly improved insulin sensitivity
- retroperitoneal fat content (rats [8]): significantly reduced by hemopressin only
- total body weight and periepididymal fat content (rats [8]): significantly reduce
- Body Weight (% of Control) (rats [8]): 96.89 ± 1.25 % of Control
- Periepididymal Adipose Tissue Weight (rats [8]): 7.16 ± 1.36 g
- Retroperitoneal Adipose Tissue Weight (rats [8]): 6.26 ± 1.62 g
- Visceral Adipose Tissue Weight (rats [8]): 4.31 ± 0.61 g
- growth of neurites as measured against agonists (2A neural cells): efficiently blocks the growth of neurites
- basal growth of neurites (2A neural cells; substance alone): capable of decreasing the basal growth of neurites
- percentage of activity as compared to the control group ([9]; agonist and HP together): 137.10 ± 1.91%
- percentage of activity as compared to the control group ([9]; hemopressin alone): 99.65 ± 4.71%
- percentage of activity as compared to the control group ([10]; agonist and HP together): 157.40 ± 8.15%
- percentage of activity as compared to the control group ([10]; hemopressin alone): 103.85 ± 9.29%
- percentage of activity as compared to the control group (mu opioid receptor; agonist and HP together): 141.09 ± 6.46%
- percentage of activity as compared to the control group (mu opioid receptor; hemopressin alone): 105.62 ± 1.09%
- percentage of activity as compared to the control group (delta opioid receptor; agonist and HP together): 131.08 ± 3.35%
- percentage of activity as compared to the control group (delta opioid receptor; hemopressin alone): 100.65 ± 4.29%
- percentage of activity as compared to the control group ([11]; agonist and HP together): 130.05 ± 7.06%
- percentage of activity as compared to the control group ([11]; hemopressin alone): 102.72 ± 2.00%
- percentage of activity as compared to the control group ([12]; agonist and HP together): 140.01 ± 1.21%
- percentage of activity as compared to the control group ([12]; hemopressin alone): 109.65 ± 1.31%

Compound: PVNFKWLSH [HPW2]
- Body Weight (% of Control) (male Wistar rats): 95.47 ± 15.44 % of Control
- Periepididymal Adipose Tissue Weight (male Wistar rats): 4.01 ± 0.33 g
- Retroperitoneal Adipose Tissue Weight (male Wistar rats): 5.37 ± 1.11 g
- Visceral Adipose Tissue Weight (male Wistar rats): 2.63 ± 0.94 g
- periepididymal and visceral fat content compared to saline control (male Wistar rats): significantly reduced periepididymal and visceral fat content
- retroperitoneal fat content (male Zucker rats): significant reduction in retroperitoneal fat content
- insulin sensitivity (diet induced obese rats): significantly improved insulin sensitivity
- total body weight and periepididymal fat content (rats [8]): significantly reduce
- Body Weight (% of Control) (rats [8]): 96.71 ± 2.03 % of Control
- Periepididymal Adipose Tissue Weight (rats [8]): 7.32 ± 1.22 g
- Retroperitoneal Adipose Tissue Weight (rats [8]): 7.19 ± 1.50 g
- Visceral Adipose Tissue Weight (rats [8]): 4.28 ± 0.59 g
